Laboratory results from ChEMBL document CHEMBL1138872, “Free radical scavengers from the medicinal mushroom Inonotus xeranticus and their proposed biogenesis” (Bioorg Med Chem Lett, 2006).

Legend:
Assay type in all cases: functional
[1] = ABTS radical scavenging activity
[2] = Superoxide anion radical scavenging activity by xanthine/xanthine oxidase method
[3] = DPPH radical scavenging activity

Molecule	IC50 [1] [µM]	IC50 [2] [µM]	IC50 [3] [µM]
O=c1oc2cc(/C=C/c3ccc(O)c(O)c3)oc(=O)c2c2cc(O)c(O)cc12 [PHELLIGRIDIN D]	13.7	> 100	> 100
O=C(O)c1ccc(O)c(O)c1 [PROTOCATECHUIC ACID]	15.7	> 100	27
O=C(O)/C=C/c1ccc(O)c(O)c1 [CAFFEIC ACID]	2.8	2.9	30
VITAMIN E	8.8	> 100	11.5
COc1cc(/C=C/c2cc3c(c(=O)o2)-c2cc(O)c(O)cc2C(OC)O3)ccc1O (stereo unspecified) [METHYLINOSCAVIN D]	8.7	40.7	> 100
COC1Oc2cc(/C=C/c3ccc(O)c(O)c3)oc(=O)c2-c2cc(O)c(O)cc21 (stereo unspecified) [INOSCAVIN D]	12.5	> 100	> 100
O=Cc1ccc(O)c(O)c1 [PROTOCATECHUALDEHYDE]	5	25.3	29.4
